# Results as given in patent US8288375B2, “Fungicidal bicyclic pyrazoles” (E.I. du Pont de Nemours and Company, priority 2007, dated 2012).
# Marks after values point to notes of the source that are not given here.
# Legend:
# Assay type in all cases: in vivo
# [1] = tested on: Erysiphe graminis f. sp. tritici; assay: Test A: wheat powdery mildew, test suspension sprayed on wheat seedlings, disease rating; conditions: 200 ppm test suspension, 100 = 100% disease control, 0 = no control; for pest or weed control at 200 ppm: Blumeria graminis, 192 h
# [2] = tested on: Puccinia recondite f sp. tritici; assay: Test B: wheat leaf rust, test suspension sprayed on wheat seedlings, disease rating; conditions: for pest or weed control at 40 ppm: Puccinia, 192 h;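 as to all read-outs here: 200 ppm unless marked * meaning 40 ppm or ** meaning 10 ppm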
# Fusarium graminearum = assay: whole plant or invertebrate; conditions: for pest or weed control at 40 ppm: Fusarium graminearum, in Triticum aestivum, 192 h, read-out: Test C disease control rating
# Septoria nodorum = assay: Test D: wheat glume blotch, test suspension sprayed on wheat seedlings, disease rating; conditions: 200 ppm test suspension; for pest or weed control at 200 ppm: Parastagonospora nodorum, 216 h
# Septoria tritici = assay: Test E: wheat leaf blotch, test suspension sprayed on wheat seedlings, disease rating;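 also: 200 ppm unless marked * meaning 40 ppm or ** meaning 10 ppm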
# [3] = tested on: Colletotrichum orbiculare; assay: Test F: cucumber Colletotrichum anthracnose, test suspension sprayed on cucumber seedlings, disease rating
# Alternaria solani = assay: Test G: tomato early blight, test suspension sprayed on seedlings, disease rating;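 also: 200 ppm unless marked * meaning 40 ppm or ** meaning 10 ppm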
# Botrytis cinerea = assay: Test H: tomato Botrytis, test suspension sprayed on tomato seedlings, disease rating; conditions: 200 ppm test suspension; for pest or weed control at 200 ppm: Botrytis cinerea, 120 h
# Rhizoctonia oryzae = assay: Test I: turf brown patch, test suspension sprayed on creeping bent grass seedlings, disease rating; conditions: 200 ppm test suspension; for pest or weed control at 200 ppm: Waitea circinata, in Agrostis stolonifera, 120 h
# Phytophthora infestans = assay: whole plant or invertebrate
# Pythium aphanidermatum = assay: Test L: bluegrass pythium blight, test suspension sprayed on bluegrass seedlings, disease rating;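 also: 200 ppm unless marked * meaning 40 ppm or ** meaning 10 ppm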
# Plasmopara viticola = assay: Test K: grape downy mildew, grape seedlings inoculated and then sprayed, disease rating; conditions: 200 ppm test suspension
# [4] = Phytophthora infestans, in Solanum lycopersicum, 120 h, read-out: Test J disease control rating
SMILES,Test A disease control rating [1] [%],Test B disease control rating ([2]; 40 ppm test suspension (*)),Test C disease control rating (Fusarium graminearum; 40 ppm test suspension (*)),Test D disease control rating (Septoria nodorum) [%],Test E disease control rating (Septoria tritici; 40 ppm test suspension (*)),Test F disease control rating ([3]; 200 ppm test suspension) [%],Test G disease control rating (Alternaria solani; 40 ppm test suspension (*)),Test H disease control rating (Botrytis cinerea) [%],Test I disease control rating (Rhizoctonia oryzae) [%],Test J disease control rating (Phytophthora infestans; 40 ppm test suspension (*)),Test L disease control rating (Pythium aphanidermatum; 40 ppm test suspension (*)),other results
C=CCN1CNCc2c(-c3ccnc(NC4CC4)n3)c(-c3ccc(F)cc3)nn21 [Compound 137],86,0* %,69* %,92,73* %,0,99* %,0,0,53* %,99* %,–
CN(N)c1nccc(-c2c(-c3ccc(F)cc3)nn3c2CCCC3)n1 [compound 70],83,0* %,0* %,90,84* %,91,46* %,29,9,53* %,98* %,–
Cc1ccc(CNc2nccc(-c3c(-c4ccc(F)cc4)nn4c3CCCC4)n2)o1 [compound 79],76,–,99* %,69,93* %,0,0* %,0,0,0* %,0* %,–
COCC(C)Nc1nccc(-c2c(-c3ccc(C)cc3)nn3c2CCC3)n1 (stereo not drawn) [compound 89],21,–,–,60,–,0,–,8,0,–,–,Test C disease control rating (Fusarium graminearum; 200 ppm test suspension): 100%; Test J disease control rating (Phytophthora infestans; 200 ppm test suspension): 0%; Test K disease control rating (Plasmopara viticola): 0%; Test L disease control rating (Pythium aphanidermatum; 200 ppm test suspension): 99%
"CN1CCCc2c(-c3ccnc(NC4CC4)n3)c(-c3ccc(F)cc3)nn21 [Compound 135, N-cyclopropyl-4-[2-(4-fluorophenyl)-4,5,6,7-tetrahydro-7-methylpyrazolo[1,5-b]pyridazin-3-yl]-2-pyrimidinamine]",–,–,–,–,–,–,–,–,–,–,–,"pest or weed control at 200 ppm [1]: 95%; pest or weed control at 40 ppm ([2]; 40 ppm test suspension (*)): 61%; pest or weed control at 40 ppm (Fusarium graminearum): 84%; pest or weed control at 200 ppm (Septoria nodorum): 89%; pest or weed control at 40 ppm (Septoria tritici; Zymoseptoria tritici, 504 h, 40 ppm test suspension (*)): 90%; pest or weed control at 200 ppm ([3]; Colletotrichum orbiculare, 144 h, 200 ppm test suspension): 99%; pest or weed control at 40 ppm (Alternaria solani; Alternaria solani, 168 h, 40 ppm test suspension (*)): 99%; pest or weed control at 200 ppm (Botrytis cinerea): 70%; pest or weed control at 200 ppm (Rhizoctonia oryzae): 0%; pest or weed control at 40 ppm (Phytophthora infestans; [4]): 70%"
CC(CN(C)C)Nc1nccc(-c2c(-c3ccc(F)cc3)nn3c2CCCC3)n1 (stereo not drawn) [compound 77],82,–,92* %,49,0* %,0,0* %,29,0,40* %,0* %,–
"CC(CO)Nc1nccc(-c2c(-c3ccc(F)cc3)nn3c2CCCC3)n1 (stereo not drawn) [Compound 5, 2-[[4-[2-(4-fluorophenyl)-4,5,6,7-tetrahydropyrazolo[5,1-a]pyridin-3-yl]-2-pyrimidinyl]amino]-1-propanol]",96,–,–,97,–,99,98* %,99,0,–,–,Test B disease control rating ([2]; 200 ppm test suspension): 100%; Test C disease control rating (Fusarium graminearum; 200 ppm test suspension): 100%; Test E disease control rating (Septoria tritici; 200 ppm test suspension): 97%; Test J disease control rating (Phytophthora infestans; 200 ppm test suspension): 99%; Test L disease control rating (Pythium aphanidermatum; 200 ppm test suspension): 100%
Fc1ccc(-c2nn3c(c2-c2ccnc(NCC4CCOCC4)n2)CCCC3)cc1 [compound 80],82,–,98* %,82,93* %,0,68* %,44,0,33* %,0* %,–
CC(C)Nc1nccc(-c2c(-c3ccc(F)cc3)nn3c2CCCN3)n1 [Compound 136],0,92* %,77* %,97,28* %,0,99* %,41,0,57* %,100* %,–
CC(CO)Nc1nccc(-c2c(-c3ccc(F)cc3)nn3c2CCCC3)n1.Cl (stereo not drawn) [compound 72],0,94* %,0* %,82,47* %,0,98* %,77,0,99* %,100* %,–
CC(C)C(CO)Nc1nccc(-c2c(-c3ccc(F)cc3)nn3c2CCCC3)n1 (stereo not drawn) [compound 74],20,91* %,10* %,60,86* %,0,0* %,0,0,0* %,93* %,–
CC(C)Nc1nccc(-c2c(-c3ccc(F)cc3)nn3c2CNCC3)n1.Cl [Compound 133],0,19* %,42* %,0,0* %,98,0* %,0,0,73* %,99* %,–
CCCC(CO)Nc1nccc(-c2c(-c3ccc(F)cc3)nn3c2CCCC3)n1 (stereo not drawn) [compound 73],0,85* %,0* %,78,84* %,0,0* %,0,0,17* %,98* %,–
"CC(=O)N1CCCc2c(-c3ccnc(NC4CC4)n3)c(-c3ccc(F)cc3)nn21 [Compound 134, 1-[3-[2-(cyclopropylamino)-4-pyrimidinyl]-2-(4-fluorophenyl)-5,6-dihydropyrazolo[1,5-b]pyridazin-7(4H)-yl]ethanone]",–,–,–,–,–,–,–,–,–,–,–,"pest or weed control at 200 ppm [1]: 91%; pest or weed control at 40 ppm ([2]; 40 ppm test suspension (*)): 85%; pest or weed control at 40 ppm (Fusarium graminearum): 84%; pest or weed control at 200 ppm (Septoria nodorum): 96%; pest or weed control at 10 ppm (Septoria tritici; Zymoseptoria tritici, 504 h, 10 ppm test suspension (**)): 77%; pest or weed control at 40 ppm ([3]; Colletotrichum orbiculare, 144 h, 40 ppm test suspension (*)): 99%; pest or weed control at 10 ppm (Alternaria solani; Alternaria solani, 168 h, 10 ppm test suspension (**)): 98%; pest or weed control at 200 ppm (Botrytis cinerea): 53%; pest or weed control at 200 ppm (Rhizoctonia oryzae): 24%; pest or weed control at 10 ppm (Phytophthora infestans; [4]): 90%; pest or weed control at 40 ppm (Pythium aphanidermatum; Pythium aphanidermatum, 120 h, 40 ppm test suspension (*)): 100%"
Fc1ccc(-c2nn3c(c2-c2ccnc(NOCC4CCC4)n2)CCCC3)cc1 [compound 75],31,0* %,0* %,0,92* %,0,0* %,0,0,0* %,0* %,–
Fc1ccc(-c2nn3c(c2-c2ccnc(NCc4ccco4)n2)CCCC3)cc1 [compound 78],58,–,99* %,69,60* %,0,0* %,0,0,17* %,0* %,–
CC(=O)N1CCn2nc(-c3ccc(F)cc3)c(-c3ccnc(NC(C)C)n3)c2C1 [Compound 130],86,92* %,0* %,97,97* %,0,58* %,34,0,100* %,100* %,–
